In brackets after ≈: the same amount, converted by molar mass. Counter-ions that a name gives are not always drawn.
Columns and labels:
Assay in all cases: Antibacterial activity, minimum inhibition concentration (method of The Chemotherapy Association, Japan)
Format in all cases: cell-based
[1] = tested on: Staphylococcus aureus 6538-P; conditions: strain A: Staphylococcus aureus 6538-P; for MIC: read-out: minimum inhibition concentration
Protocol: (§1) Antibacterial activities of the compounds according to this invention, which had been prepared in the preceding Examples, were measured according to the method prescribed by The Committee of Amendment of "The method for measurement of the minimum inhibition concentration", The Chemotherapy Association, Japan (See Chemotherapy, Vol. 22, No. 6, pp. 1126 - 1128 (1974) and Vol. 29, No. 1, pp. 76 - 79 (1981)).
(§2) The abbreviations A to P will be used in the following Tables 2 to 8.
(§3) Test results are shown in terms of the minimum inhibition concentration (µg/mℓ.) in the following Tables 2 to 8.

[2] = tested on: Pseudomonas aeruginosa NCTC-10490; conditions: for MIC: Pseudomonas aeruginosa, NCTC10490, strain M: Pseudomonas aeruginosa NCTC-10490, read-out: minimum inhibition concentration; for minimum inhibition concentration: strain M: Pseudomonas aeruginosa NCTC-10490
Protocol: as §1, §2, §3

[3] = tested on: Escherichia coli NIHJ; conditions: strain K: Escherichia coli NIHJ; for MIC: Escherichia coli, read-out: minimum inhibition concentration
Protocol: as §1, §2, §3

[4] = tested on: Proteus vulgaris OX-19; conditions: for MIC: Proteus vulgaris, OX19, strain H: Proteus vulgaris OX-19, read-out: minimum inhibition concentration; for minimum inhibition concentration: strain H: Proteus vulgaris OX-19
Text: as §2, §3

[5] = tested on: Proteus rettgeri NIH-96; conditions: for MIC: Providencia rettgeri, NIH96, strain I: Proteus rettgeri NIH-96, read-out: minimum inhibition concentration; for minimum inhibition concentration: strain I: Proteus rettgeri NIH-96
Text: as §2, §3

[6] = tested on: Salmonella typhimurium 3173; conditions: strain D: Salmonella typhimurium 3173; for MIC: Salmonella enterica, TYPHIMURIUM, read-out: minimum inhibition concentration
Protocol: as §1, §2, §3

[7] = tested on: Citrobactor freundii NIH-10018 -68; conditions: strain O: Citrobactor freundii NIH-10018 -68; for MIC: read-out: minimum inhibition concentration
Protocol: as §1, §2, §3

[8] = tested on: Proteus mirabillis B-30-2 IFO-3849; conditions: strain G: Proteus mirabillis B-30-2 IFO-3849; for MIC: read-out: minimum inhibition concentration
Protocol: as §1, §2, §3

[9] = tested on: Proteus morgani Kono; conditions: strain J: Proteus morgani Kono; for MIC: read-out: minimum inhibition concentration
Protocol: as §1, §2, §3

[10] = tested on: Klebsiella pneumoniae; conditions: strain C: Klebsiella pneumoniae; for MIC: Klebsiella pneumoniae, read-out: minimum inhibition concentration
Protocol: as §1, §2, §3

[11] = tested on: Enterobactor cloacae NCTC-9394; conditions: strain N: Enterobactor cloacae NCTC-9394; for MIC: read-out: minimum inhibition concentration
Protocol: as §1, §2, §3

[12] = tested on: Escherichia coli NIHJC-2; conditions: for MIC: Escherichia coli, NIHJC2, strain L: Escherichia coli NIHJC-2, read-out: minimum inhibition concentration; for minimum inhibition concentration: strain L: Escherichia coli NIHJC-2
Protocol: as §1, §2, §3

[13] = tested on: Bacillus subtilis ATCC 6633; conditions: for MIC: Bacillus subtilis, ATCC6633, strain B: Bacillus subtilis ATCC 6633, read-out: minimum inhibition concentration; for minimum inhibition concentration: strain B: Bacillus subtilis ATCC 6633
Protocol: as §1, §2, §3

[14] = tested on: Serratia marcescens IFO-3736; conditions: for MIC: Serratia marcescens, IFO3736, strain F: Serratia marcescens IFO-3736, read-out: minimum inhibition concentration; for minimum inhibition concentration: strain F: Serratia marcescens IFO-3736
Protocol: as §1, §2, §3

[15] = tested on: Serratia marcescens 1023; conditions: strain E: Serratia marcescens 1023
Protocol: as §1, §2, §3

Compound	MIC [1] [µg/mL]	MIC [2] [µg/mL]	MIC [3] [µg/mL]	MIC [4] [µg/mL]	MIC [5] [µg/mL]	MIC [6] [µg/mL]	MIC [7] [µg/mL]	MIC [8] [µg/mL]	MIC [9] [µg/mL]	MIC [10] [µg/mL]	MIC [11] [µg/mL]	MIC [12] [µg/mL]	MIC [13] [µg/mL]	MIC [14] [µg/mL]	minimum inhibition concentration [4] [µg/mL]	minimum inhibition concentration [5] [µg/mL]	minimum inhibition concentration [1] [µg/mL]	minimum inhibition concentration [6] [µg/mL]	minimum inhibition concentration [7] [µg/mL]	minimum inhibition concentration [2] [µg/mL]	further results
CC(=O)OCC1=C(C(=O)O)N2C(=O)C(NC(=O)C(=C(Cl)Cl)c3ccccc3)[C@H]2SC1 (stereo partly drawn) [Compound 38, 7-(2-dichloromethylene-2-phenylacetamido)-3-acetoxymethyl-3-cephem-4-carboxylic acid]	1.56 (≈ 3.31 µM)	> 100	3.1 (≈ 6.58 µM)																		
CC1=C(C(=O)O)N2C(=O)C(NC(=O)C(=C(Cl)Cl)c3csc(N)n3)C2SC1 (stereo not drawn) [8-(3), 7-[2-dichloromethylene-2-(2-aminothiazol-4-yl)-acetamido]-desacetoxycephalosporanic acid sodium salt]	25	> 100	6.25	12.5	0.2	> 100	> 100	100	> 100	> 100	100	100	100	> 100							
Cn1nnnc1SCC1=C(C(=O)O)N2C(=O)C(NC(=O)C(=C(Cl)Cl)c3csc(N)n3)C2SC1 (stereo not drawn) [6-(3), 7-[2-dichloromethylene-(2-aminothiazol-4-yl)-acetamido]-3-(l-methyl-lH-tetrazol-5-yl)thiomethyl-3-cephem-4-carboxylic acid sodium salt]															0.1	<0.025	0.78				minimum inhibition concentration ([6]; sodium salt): 3.125 µg/mL; minimum inhibition concentration ([10]; sodium salt): 6.25 µg/mL; minimum inhibition concentration ([3]; sodium salt): 0.05 µg/mL; minimum inhibition concentration ([13]; sodium salt): 25 µg/mL
7-[2-chloromethylene-2-(2-aminothiazol-4-yl)acetamido]-3-[(2,5-dihydro-6-hydroxy-2-methyl-5-oxo-as-triazin-3-yl)thiomethyl-3-cephem-4-carboxylic acid disodium salt [Compound 22]															0.1		0.78	1.56	1.56	6.25	minimum inhibition concentration [15]: 6.25 µg/mL; minimum inhibition concentration [8]: 0.39 µg/mL; minimum inhibition concentration [9]: 0.39 µg/mL; minimum inhibition concentration [10]: 0.78 µg/mL; minimum inhibition concentration [11]: 0.39 µg/mL; minimum inhibition concentration [3]: <0.00625 µg/mL; minimum inhibition concentration [12]: 3.125 µg/mL; minimum inhibition concentration [13]: 6.25 µg/mL; minimum inhibition concentration [14]: 1.56 µg/mL
7-[2-dichloromethylene-2-(2-aminothiazol-4-yl)acetamido]-3-(l-carboxymethyltetrazol-5-yl)thiomethyl-3-cephem-4-carboxylic acid disodium salt [7-(3)]															0.1	<0.025	6.25	6.25	12.5	6.25	minimum inhibition concentration [8]: 1.56 µg/mL; minimum inhibition concentration [9]: 3.125 µg/mL; minimum inhibition concentration [10]: 12.5 µg/mL; minimum inhibition concentration [11]: 3.125 µg/mL; minimum inhibition concentration [3]: <0.025 µg/mL; minimum inhibition concentration [12]: 25 µg/mL; minimum inhibition concentration [13]: 12.5 µg/mL; minimum inhibition concentration [14]: 25 µg/mL
CSc1nnc(SCC2=C(C(=O)O)N3C(=O)C(NC(=O)C(=C(Cl)Cl)c4csc(N)n4)C3SC2)s1 (stereo not drawn) [9-(2), 7-[2-dichloromethylene-2-(aminothiazol-4-yl)-acetamido]-3-(2-methylthio-l,3,4-thiadiazol-5-yl) thiomethyl-3-cephem-4-carboxylic acid sodium salt]	0.78	12.5	< 0.025	0.2	< 0.025	12.5	12.5	25	12.5	12.5	3.12	25	3.12	50							

— patent EP0048954A2, “Beta-lactam compounds, process for the preparation thereof and intermediate products for the preparation thereof” (SAGAMI CHEMICAL RESEARCH CENTER, priority 1980, dated 1982)
